Molecules are shown by their SMILES. Read-outs that look alike come from different tables or passages of the source.

For assay [1], the system named is pSer473 of PKB/Akt in SKOV3 cells. Description: In-Cell Western cellular PI3K signaling, pSer473 of PKB/Akt in SKOV3 cells. Format: cell-based. Particulars: Homo sapiens. As for the experimental part:
Protein phosphorylation was detected as follows: pSer473 of PKB/Akt with rabbit polyclonal antibody from Cell Signaling Technology (CST) (#4058) by In-Cell Western assays, where 1.2×10^4 SKOV3 cells/well in 96-well plates were plated (Cell Carrier, PerkinElmer) for 24 hours (37° C., 5% CO2), as described in Ref.^21.

A further assay deals with p110α (PI3Kα) (Homo sapiens, UniProt P42336). Put plainly: LanthaScreen determination of kinetic constants (kinact, Ki) for p110α.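 On all read-outs here: covalent inhibition constants for p110α come from LanthaScreen data, fitted globally by numerical integration in KinTek Global Kinetic Explorer software.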 Format: binding. Particulars: for Ki: dissociation constant of the first reversible binding, mean of 3; for kinact: read-out: kinact PI3Kα.
[2] abbreviates: SK-OV-3, SKOV3 cells, mean of 2 or 3 independent measurements, read-out: IC50 pPKB (S473) SKOV3.
The mark [3] stands for this setting: mean of 3 independent measurements, global fitting with KinTek.
Where [4] appears, read: SK-OV-3, read-out: IC50 pPKB (S473) SKOV3.

Chain of p110α (PI3Kα) (P42336 whole entry): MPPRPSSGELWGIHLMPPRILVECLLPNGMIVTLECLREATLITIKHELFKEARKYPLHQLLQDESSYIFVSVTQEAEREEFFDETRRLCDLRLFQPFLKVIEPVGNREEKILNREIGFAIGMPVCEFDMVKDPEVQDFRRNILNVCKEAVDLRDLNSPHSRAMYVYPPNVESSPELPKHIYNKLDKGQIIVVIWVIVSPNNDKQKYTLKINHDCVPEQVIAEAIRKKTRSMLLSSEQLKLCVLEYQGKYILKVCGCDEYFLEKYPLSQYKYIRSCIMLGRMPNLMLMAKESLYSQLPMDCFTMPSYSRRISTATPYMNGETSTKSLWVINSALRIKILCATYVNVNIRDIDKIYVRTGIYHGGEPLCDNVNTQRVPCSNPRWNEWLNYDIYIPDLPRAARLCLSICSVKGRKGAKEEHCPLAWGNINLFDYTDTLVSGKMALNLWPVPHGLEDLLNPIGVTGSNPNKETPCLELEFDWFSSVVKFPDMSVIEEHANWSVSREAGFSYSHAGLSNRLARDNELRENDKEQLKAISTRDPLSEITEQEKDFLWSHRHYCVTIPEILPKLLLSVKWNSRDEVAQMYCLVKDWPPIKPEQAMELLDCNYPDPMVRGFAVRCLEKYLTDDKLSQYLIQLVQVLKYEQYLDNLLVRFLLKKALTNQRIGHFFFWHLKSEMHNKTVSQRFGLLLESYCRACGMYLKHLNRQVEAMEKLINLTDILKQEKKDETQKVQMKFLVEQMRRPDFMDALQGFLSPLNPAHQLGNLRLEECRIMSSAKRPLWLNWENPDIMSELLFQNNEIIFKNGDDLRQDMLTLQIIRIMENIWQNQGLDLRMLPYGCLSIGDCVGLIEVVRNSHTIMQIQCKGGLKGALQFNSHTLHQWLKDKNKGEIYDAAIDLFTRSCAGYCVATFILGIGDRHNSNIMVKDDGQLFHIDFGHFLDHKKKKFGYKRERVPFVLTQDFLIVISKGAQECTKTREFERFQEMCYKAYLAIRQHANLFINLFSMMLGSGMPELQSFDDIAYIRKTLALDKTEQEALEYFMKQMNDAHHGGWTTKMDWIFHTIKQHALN
Chain of p110α (PI3Kα) (P27986 whole entry partner): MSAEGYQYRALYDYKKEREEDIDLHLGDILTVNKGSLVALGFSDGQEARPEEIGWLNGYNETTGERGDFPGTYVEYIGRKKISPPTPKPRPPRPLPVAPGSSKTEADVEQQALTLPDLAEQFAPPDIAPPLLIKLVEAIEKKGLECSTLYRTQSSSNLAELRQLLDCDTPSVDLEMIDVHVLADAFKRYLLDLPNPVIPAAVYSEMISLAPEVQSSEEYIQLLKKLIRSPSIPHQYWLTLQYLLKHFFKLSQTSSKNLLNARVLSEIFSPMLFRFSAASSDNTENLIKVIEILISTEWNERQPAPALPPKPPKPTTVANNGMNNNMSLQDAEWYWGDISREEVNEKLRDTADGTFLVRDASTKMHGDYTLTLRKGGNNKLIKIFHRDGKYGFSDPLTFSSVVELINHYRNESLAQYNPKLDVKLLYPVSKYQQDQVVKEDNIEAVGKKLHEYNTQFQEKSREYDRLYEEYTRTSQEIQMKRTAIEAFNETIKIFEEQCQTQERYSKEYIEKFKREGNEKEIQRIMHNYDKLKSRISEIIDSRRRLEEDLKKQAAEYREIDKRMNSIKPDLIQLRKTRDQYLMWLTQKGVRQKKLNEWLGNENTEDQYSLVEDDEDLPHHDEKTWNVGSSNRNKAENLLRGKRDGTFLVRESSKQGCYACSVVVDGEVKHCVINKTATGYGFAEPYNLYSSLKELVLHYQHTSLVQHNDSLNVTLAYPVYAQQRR
Experimental for p110α (PI3Kα): Apparent dissociation constants of compounds [Ki(app)] for p110α were determined by LanthaScreen Technology (Life Technologies), as described in Ref.^21.
Maximum potential rate of covalent bond formation (Kinact) and dissociation constant of the first reversible binding (Ki) of compounds for p110α were determined by LanthaScreen Technology (Life Technologies). The calculation of kinetic parameters was carried out through global fitting for numerical integration by using KinTek Global Kinetic Explorer modelling software^22-27.

Consider `C/C=C/C(=O)N1CC(C(=O)N(C)CC(=O)N2CCN(c3nc(-c4cnc(N)nc4C(F)F)nc(N4CCOCC4)n3)CC2)C1` [Compound 34, (E)-N-(2-(4-(4-(2-amino-4-(difluoromethyl)pyrimidin-5-yl)-6-morpholino-1,3,5-triazin-2-yl)piperazin-1-yl)-2-oxoethyl)-1-(but-2-enoyl)-N-methylazetidine-3-carboxamide], for which, in assay [1] (setting [2]), the IC50 amounted to 236 nM.

For the compound `C=CC(=O)N1CCC[C@@H](C(=O)NCCN2CCN(c3nc(-c4cnc(N)nc4C(F)F)nc(N4CCOCC4)n3)CC2)C1` [Compound 19, (R)-1-acryloyl-N-(2-(4-(4-(2-amino-4-(difluoromethyl)pyrimidin-5-yl)-6-morpholino-1,3,5-triazin-2-yl)piperazin-1-yl)ethyl)piperidine-3-carboxamide], the kinact/KI on p110α (PI3Kα) (PI3Kα, read-out: kinact/Ki) was found to be 16300 M⁻¹ s⁻¹. At p110α (PI3Kα), this compound had a Ki of 12 nM. The kinact on p110α (PI3Kα) (setting [3]) turned out to be 0.000196 s⁻¹. Besides, in assay [1] (setting [2]), the IC50 turned out to be 28.8 nM.

As to `N#C/C(=C/C1CC1)C(=O)N1CC[C@@H](COCC(=O)N2CCN(c3nc(-c4cnc(N)nc4C(F)F)nc(N4CCOCC4)n3)CC2)C1` [Compound 10, (R,Z)-2-(3-((2-(4-(4-(2-amino-4-(difluoromethyl)pyrimidin-5-yl)-6-morpholino-1,3,5-triazin-2-yl)piperazin-1-yl)-2-oxoethoxy)methyl)pyrrolidine-1-carbonyl)-3-cyclopropylacrylonitrile], the kinact/KI at p110α (PI3Kα) (PI3Kα, read-out: kinact/Ki) was found to be 1.02e+07 M⁻¹ s⁻¹. In addition, the inhibition constant (Ki) on p110α (PI3Kα) worked out at 1.09 nM. Further, at p110α (PI3Kα) (setting [3]), the inactivation rate constant (kinact) worked out at 0.0111 s⁻¹. In assay [1] (setting [2]), the half-inhibitory concentration (IC50) stood at 23.1 nM.

On to `C=CC(=O)N1CCO[C@H](COCC(=O)N2CCN(c3nc(-c4cnc(N)nc4C(F)F)nc(N4CCOC[C@@H]4C)n3)CC2)C1` [Compound 42, 1-((S)-2-((2-(4-(4-(2-amino-4-(difluoromethyl)pyrimidin-5-yl)-6-((S)-3-methylmorpholino)-1,3,5-triazin-2-yl)piperazin-1-yl)-2-oxoethoxy)methyl)morpholino)prop-2-en-1-one], for which, on p110α (PI3Kα) (PI3Kα, read-out: kinact/Ki), the kinact/KI is 75400 M⁻¹ s⁻¹. For the same compound, on p110α (PI3Kα), affinity was put at a Ki of 7.1 nM. Besides, the inactivation rate constant (kinact) at p110α (PI3Kα) (setting [3]) is 0.000537 s⁻¹.

Take `C=CC(=O)N1CCC[C@H](COCC(=O)N2CCN(c3nc(-c4cnc(N)nc4C(F)F)nc(N4CCOC[C@@H]4C)n3)CC2)C1` [Compound 2, 1-((S)-3-((2-(4-(4-(2-amino-4-(difluoromethyl)pyrimidin-5-yl)-6-((S)-3-methylmorpholino)-1,3,5-triazin-2-yl)piperazin-1-yl)-2-oxoethoxy)methyl)piperidin-1-yl)prop-2-en-1-one]: on p110α (PI3Kα) (PI3Kα, read-out: kinact/Ki), the kinact/KI turned out to be 94300 M⁻¹ s⁻¹. At p110α (PI3Kα), this compound had a Ki of 2.78 nM. In addition, the kinact at p110α (PI3Kα) (setting [3]) was found to be 0.000262 s⁻¹. Also, the half-maximal inhibitory concentration (IC50) in assay [1] (setting [2]) is 28.8 nM.

Consider `C=CC(=O)N1CCO[C@@H](COCC(=O)N2CCN(c3nc(-c4cnc(N)nc4C(F)F)nc(N4CCOC[C@@H]4C)n3)CC2)C1` [Compound 40, 1-((R)-2-((2-(4-(4-(2-amino-4-(difluoromethyl)pyrimidin-5-yl)-6-((S)-3-methylmorpholino)-1,3,5-triazin-2-yl)piperazin-1-yl)-2-oxoethoxy)methyl)morpholino)prop-2-en-1-one], for which the kinact/KI at p110α (PI3Kα) (PI3Kα, read-out: kinact/Ki) amounted to 224000 M⁻¹ s⁻¹. At p110α (PI3Kα), the affinity corresponds to a Ki of 7.27 nM. The maximal inactivation rate constant (kinact) on p110α (PI3Kα) (setting [3]) amounted to 0.00163 s⁻¹.

For `C=CC(=O)N1CCC[C@@H](COCC(=O)N2CCN(c3nc(-c4cnc(N)nc4C(F)F)nc(N4CCOC[C@@H]4C)n3)CC2)C1` [Compound 1, 1-((R)-3-((2-(4-(4-(2-amino-4-(difluoromethyl)pyrimidin-5-yl)-6-((S)-3-methylmorpholino)-1,3,5-triazin-2-yl)piperazin-1-yl)-2-oxoethoxy)methyl)piperidin-1-yl)prop-2-en-1-one], on p110α (PI3Kα), the kinact/KI is 156000 M⁻¹ s⁻¹, the inhibition constant (Ki) came out at 2.7 nM and the kinact was found to be 0.000419 s⁻¹. Further, the half-maximal inhibitory concentration (IC50) in assay [1] (setting [4]) worked out at 25.4 nM.

As to `C=CC(=O)N1CCC[C@@H](OCCC(=O)N2CCN(c3nc(-c4cnc(N)nc4C(F)F)nc(N4CCOC[C@@H]4C)n3)CC2)C1` [Compound 5, 1-((R)-3-(3-(4-(4-(2-amino-4-(difluoromethyl)pyrimidin-5-yl)-6-((S)-3-methylmorpholino)-1,3,5-triazin-2-yl)piperazin-1-yl)-3-oxopropoxy)piperidin-1-yl)prop-2-en-1-one], on p110α (PI3Kα), the kinact/KI worked out at 595000 M⁻¹ s⁻¹, the inhibition constant (Ki) was determined as 8.88 nM and the kinact amounted to 0.0052 s⁻¹. The IC50 in assay [1] (setting [4]) was 17.1 nM.

`C=CC(=O)N1CC[C@@H](COCC(=O)N2CCN(c3nc(-c4cnc(N)nc4C(F)F)nc(N4CCOC[C@@H]4C)n3)CC2)C1` [Compound 4, 1-((R)-3-((2-(4-(4-(2-amino-4-(difluoromethyl)pyrimidin-5-yl)-6-((S)-3-methylmorpholino)-1,3,5-triazin-2-yl)piperazin-1-yl)-2-oxoethoxy)methyl)pyrrolidin-1-yl)prop-2-en-1-one]: at p110α (PI3Kα) (PI3Kα, read-out: kinact/Ki), the kinact/KI turned out to be 325000 M⁻¹ s⁻¹. Further, the affinity on p110α (PI3Kα) corresponds to a Ki of 11.7 nM. Also, the kinact on p110α (PI3Kα) (setting [3]) was found to be 0.00383 s⁻¹. Moreover, in assay [1] (setting [2]), the concentration for half-maximal inhibition (IC50) is 35.7 nM.

For `C=CC(=O)N1CC(C(=O)NCCN2CCN(c3nc(-c4cnc(N)nc4C(F)F)nc(N4CCOCC4)n3)CC2)C1` [Compound 36, 1-acryloyl-N-(2-(4-(4-(2-amino-4-(difluoromethyl)pyrimidin-5-yl)-6-morpholino-1,3,5-triazin-2-yl)piperazin-1-yl)ethyl)azetidine-3-carboxamide], in assay [1] (setting [2]), the IC50 amounted to 48.2 nM.

Regarding `Nc1ncc(-c2nc(N3CCOCC3)nc(N3CCN(C(=O)COC[C@@H]4CCCN(C(=O)/C=C/CF)C4)CC3)n2)c(C(F)F)n1` [Compound 13, (R,E)-1-(3-((2-(4-(4-(2-amino-4-(difluoromethyl)pyrimidin-5-yl)-6-morpholino-1,3,5-triazin-2-yl)piperazin-1-yl)-2-oxoethoxy)methyl)piperidin-1-yl)-4-fluorobut-2-en-1-one], the half-inhibitory concentration (IC50) in assay [1] (setting [2]) worked out at 18 nM.

Regarding `C[C@H]1COCCN1c1nc(-c2cnc(N)nc2C(F)F)nc(N2CCN(C(=O)COC[C@@H]3CN(C(=O)/C(C#N)=C\C4CC4)CCO3)CC2)n1` [Compound 43, (Z)-2-((S)-2-((2-(4-(4-(2-amino-4-(difluoromethyl)pyrimidin-5-yl)-6-((S)-3-methylmorpholino)-1,3,5-triazin-2-yl)piperazin-1-yl)-2-oxoethoxy)methyl)morpholine-4-carbonyl)-3-cyclopropylacrylonitrile], the kinact/KI on p110α (PI3Kα) (PI3Kα, read-out: kinact/Ki) is 1.04e+06 M⁻¹ s⁻¹. The same compound returned an inhibition constant (Ki) at p110α (PI3Kα) of 13.8 nM. For the same compound, the inactivation rate constant (kinact) on p110α (PI3Kα) (setting [3]) came to 0.0143 s⁻¹.

Take `C=C(F)C(=O)N1CCC[C@H](COCC(=O)N2CCN(c3nc(-c4cnc(N)nc4C(F)F)nc(N4CCOCC4)n3)CC2)C1` [Compound 12, (S)-1-(3-((2-(4-(4-(2-amino-4-(difluoromethyl)pyrimidin-5-yl)-6-morpholino-1,3,5-triazin-2-yl)piperazin-1-yl)-2-oxoethoxy)methyl)piperidin-1-yl)-2-fluoroprop-2-en-1-one]: the half-inhibitory concentration (IC50) in assay [1] (setting [2]) is 15.4 nM.

For `C[C@H]1COCCN1c1nc(-c2cnc(N)nc2C(F)F)nc(N2CCN(C(=O)COC[C@H]3CN(C(=O)/C(C#N)=C\C4CC4)CCO3)CC2)n1` [Compound 41, (Z)-2-((R)-2-((2-(4-(4-(2-amino-4-(difluoromethyl)pyrimidin-5-yl)-6-((S)-3-methylmorpholino)-1,3,5-triazin-2-yl)piperazin-1-yl)-2-oxoethoxy)methyl)morpholine-4-carbonyl)-3-cyclopropylacrylonitrile], the kinact/KI at p110α (PI3Kα) (PI3Kα, read-out: kinact/Ki) turned out to be 1.05e+06 M⁻¹ s⁻¹. In addition, at p110α (PI3Kα), the Ki worked out at 11.6 nM. Further, the kinact on p110α (PI3Kα) (setting [3]) was found to be 0.0121 s⁻¹.

(Values after US20240208957A1, “TRIAZINE DERIVATIVE AS REVERSIBLE AND IRREVERSIBLE COVALENT INHIBITORS OF PI3K” (UNIVERSITÄT BASEL, priority 2021, published 2024).)
